Counter-ions that a name gives are not always drawn. The source made the active and inactive calls.
Key:
HEK293 [1] = test: cells; type: functional, cell-based; details: Homo sapiens
HEK293 [2] = test: NOD2 signaling inhibitors in MDP-stimulated cells, cell-based, uHTS, luminescence (AID 2001); type: functional; details: Homo sapiens
HEK293 [3] = test: cells; details: Homo sapiens
HEK293 [4] = test: cells; details: Homo sapiens; remark: listed apart in the source
HEK293 [5] = test: inhibition of NOD1-driven NF-kB reporter – cell-based, luminescence, uHTS, primary screen (AID 1578); type: functional; details: Homo sapiens
HEK293 [6] = test: cells; type: functional, cell-based; details: Homo sapiens; remark: listed apart in the source
[7] = microbe, parasite or virus in culture; type: functional; details: Mycobacterium tuberculosis
[8] = viability of PTEN-deleted HCT116 cells – cell-based, HCT116 PTEN knockout, dose response (AID 1047); type: functional;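 further: HCT116 colon tumor cells with PTEN knocked out; cells exposed to compound for 60 hours before readout; potency for loss of cell viability measured by luminescence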
[9] = viability of HCT116 lacking mutant beta-catenin – cell-based, human colon tumor, dose response (AID 1045); type: functional;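 further: HCT116 colon tumor cells with beta catenin knocked out; cells exposed to compound for 60 hours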
[10] = blockers of HIV-1 ZM109 envelope-driven cell-cell fusion – HeLa effector, CEM target cells, luciferase, cherry-pick, dose response (AID 652058); type: functional, cell-based;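 further: luciferase signal from HIV-1 Env mediated cell-cell fusion of effector and target cells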
[11] = MIN6 cell viability loss – mouse insulinoma, cytotoxicity control, dose response (AID 2122); type: functional;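 further: confirmatory high-throughput counterscreen run to flag cytotoxic compounds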
INS1 = test: INS-1E survival protection against cytokine death – cell-based, luminescence, retest, dose response (AID 449756); type: functional; details: Rattus norvegicus;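 further: cell death triggered by IL-1 beta plus TNF-alpha plus IFN-gamma mixture; protective hits raise ATP signal compared with cytokine alone wells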
[12] = decrease of insulin promoter-GFP reporter – imaging, high-content screening, mouse beta cells (AID 1628); type: functional; details: MIN6
[13] = HIV-1 AD8 envelope cell-cell fusion blockers – cherry-pick, dose response (AID 652062); type: functional, cell-based;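 further: luciferase signal from cell-cell fusion driven by HIV-1 clade B AD8 Env; potency is for inhibitors of fusion seen as a drop in luminescence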
[14] = Luminescence Cell-Based Dose Retest to Confirm Inhibitors of Cancer Stem Cells. [Related pubchem assays (depositor defined):AID2717, AID2721]; type: functional; details: Homo sapiens
A-375 = test: MITF: Counter assay: A375 proliferation Measured in Cell-Based System Using Plate Reader - 2084-03_Inhibitor_Dose_DryPowder_Activity. [Related pubchem assays (depositor defined):AID488944]; type: functional; details: Homo sapiens
Vero [15] = test: cells; type: functional; details: Chlorocebus sabaeus
[16] = target: T1, Microphthalmia-associated transcription factor (Homo sapiens, UniProt O75030); test: reducers of TRPM1 reporter luminescence, concentration series – cell-based, SK-MEL-5, cherry-picked, set 3, MITF inhibitor project, dose response (AID 493073); type: functional;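 further: SK-MEL-5 melanoma cells with luciferase driven by the MITF target TRPM1 promoter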
T1 sequence (O75030 whole entry): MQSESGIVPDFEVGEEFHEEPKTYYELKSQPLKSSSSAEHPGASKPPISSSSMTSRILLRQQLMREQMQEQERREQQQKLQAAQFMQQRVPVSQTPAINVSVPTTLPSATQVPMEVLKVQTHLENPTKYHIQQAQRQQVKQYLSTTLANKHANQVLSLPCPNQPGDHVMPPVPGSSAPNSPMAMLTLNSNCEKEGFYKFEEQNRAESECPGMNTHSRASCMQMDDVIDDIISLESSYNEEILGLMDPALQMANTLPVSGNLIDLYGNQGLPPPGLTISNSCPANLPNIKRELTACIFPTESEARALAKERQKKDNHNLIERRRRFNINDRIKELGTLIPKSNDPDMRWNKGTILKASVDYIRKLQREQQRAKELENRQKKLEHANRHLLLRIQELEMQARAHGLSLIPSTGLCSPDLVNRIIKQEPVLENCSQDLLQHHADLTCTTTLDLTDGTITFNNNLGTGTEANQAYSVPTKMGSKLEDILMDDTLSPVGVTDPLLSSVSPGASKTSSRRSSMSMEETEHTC

Vero [17] = test: cells; type: functional, cell-based; details: Chlorocebus sabaeus
Cytochrome P450 3A4 = Cytochrome P450 3A4 (Homo sapiens, UniProt P08684);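 further: CYP3A4 tested as one member of a cytochrome P450 panel screen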
Cytochrome P450 3A4, sequence (P08684 whole entry): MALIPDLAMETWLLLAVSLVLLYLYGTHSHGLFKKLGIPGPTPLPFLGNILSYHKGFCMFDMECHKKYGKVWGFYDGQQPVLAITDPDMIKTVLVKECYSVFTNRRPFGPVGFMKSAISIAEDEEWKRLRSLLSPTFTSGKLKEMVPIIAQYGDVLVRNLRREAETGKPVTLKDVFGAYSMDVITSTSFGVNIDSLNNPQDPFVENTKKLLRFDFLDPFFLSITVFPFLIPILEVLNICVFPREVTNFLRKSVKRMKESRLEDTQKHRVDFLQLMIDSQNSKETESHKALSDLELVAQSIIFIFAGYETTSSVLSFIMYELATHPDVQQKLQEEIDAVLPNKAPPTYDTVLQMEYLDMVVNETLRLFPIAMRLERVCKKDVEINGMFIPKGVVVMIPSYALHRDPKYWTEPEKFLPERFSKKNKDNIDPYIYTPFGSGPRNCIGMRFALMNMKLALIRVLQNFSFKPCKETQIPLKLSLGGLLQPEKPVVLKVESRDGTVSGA

Phospholipase D2 = Phospholipase D2 (Homo sapiens, UniProt O14939); test: cellular phospholipase D2 inhibition IC50 – cell-based, dose response (AID 602147); type: functional;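 further: cellular assay in HEK293 cells overexpressing GFP-tagged PLD2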
Phospholipase D2, sequence (O14939 whole entry): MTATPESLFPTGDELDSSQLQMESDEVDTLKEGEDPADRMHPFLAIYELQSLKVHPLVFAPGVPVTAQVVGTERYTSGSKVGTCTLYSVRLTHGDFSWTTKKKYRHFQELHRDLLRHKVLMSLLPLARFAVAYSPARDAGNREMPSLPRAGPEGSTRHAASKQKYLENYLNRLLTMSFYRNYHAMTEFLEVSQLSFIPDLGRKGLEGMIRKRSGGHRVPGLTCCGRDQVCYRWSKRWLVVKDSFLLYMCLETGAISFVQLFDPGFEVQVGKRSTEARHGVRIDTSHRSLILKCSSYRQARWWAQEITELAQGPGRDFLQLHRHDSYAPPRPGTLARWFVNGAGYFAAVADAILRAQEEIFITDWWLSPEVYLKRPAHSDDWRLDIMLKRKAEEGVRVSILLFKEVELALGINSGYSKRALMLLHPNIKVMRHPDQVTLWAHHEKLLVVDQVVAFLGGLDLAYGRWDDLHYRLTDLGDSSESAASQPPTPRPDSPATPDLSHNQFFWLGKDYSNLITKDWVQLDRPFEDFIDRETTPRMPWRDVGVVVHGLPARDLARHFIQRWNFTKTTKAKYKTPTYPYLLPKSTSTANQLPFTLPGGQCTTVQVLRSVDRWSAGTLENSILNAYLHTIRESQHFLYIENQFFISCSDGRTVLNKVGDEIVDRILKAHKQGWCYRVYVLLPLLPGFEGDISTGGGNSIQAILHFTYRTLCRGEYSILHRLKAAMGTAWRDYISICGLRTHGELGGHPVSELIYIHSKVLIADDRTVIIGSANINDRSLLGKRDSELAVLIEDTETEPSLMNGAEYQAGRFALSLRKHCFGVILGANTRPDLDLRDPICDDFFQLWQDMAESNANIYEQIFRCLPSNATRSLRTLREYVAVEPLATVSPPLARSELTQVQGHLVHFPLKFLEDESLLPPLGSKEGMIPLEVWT

Phospholipase D1 = target: T2, Phospholipase D1 (Homo sapiens, UniProt Q13393); test: cellular phospholipase D1 inhibition IC50 – cell-based, dose response (AID 602151); type: functional;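 further: cellular PLD1 assay in Calu-1 cells stimulated with PMA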
T2 sequence (Q13393 whole entry): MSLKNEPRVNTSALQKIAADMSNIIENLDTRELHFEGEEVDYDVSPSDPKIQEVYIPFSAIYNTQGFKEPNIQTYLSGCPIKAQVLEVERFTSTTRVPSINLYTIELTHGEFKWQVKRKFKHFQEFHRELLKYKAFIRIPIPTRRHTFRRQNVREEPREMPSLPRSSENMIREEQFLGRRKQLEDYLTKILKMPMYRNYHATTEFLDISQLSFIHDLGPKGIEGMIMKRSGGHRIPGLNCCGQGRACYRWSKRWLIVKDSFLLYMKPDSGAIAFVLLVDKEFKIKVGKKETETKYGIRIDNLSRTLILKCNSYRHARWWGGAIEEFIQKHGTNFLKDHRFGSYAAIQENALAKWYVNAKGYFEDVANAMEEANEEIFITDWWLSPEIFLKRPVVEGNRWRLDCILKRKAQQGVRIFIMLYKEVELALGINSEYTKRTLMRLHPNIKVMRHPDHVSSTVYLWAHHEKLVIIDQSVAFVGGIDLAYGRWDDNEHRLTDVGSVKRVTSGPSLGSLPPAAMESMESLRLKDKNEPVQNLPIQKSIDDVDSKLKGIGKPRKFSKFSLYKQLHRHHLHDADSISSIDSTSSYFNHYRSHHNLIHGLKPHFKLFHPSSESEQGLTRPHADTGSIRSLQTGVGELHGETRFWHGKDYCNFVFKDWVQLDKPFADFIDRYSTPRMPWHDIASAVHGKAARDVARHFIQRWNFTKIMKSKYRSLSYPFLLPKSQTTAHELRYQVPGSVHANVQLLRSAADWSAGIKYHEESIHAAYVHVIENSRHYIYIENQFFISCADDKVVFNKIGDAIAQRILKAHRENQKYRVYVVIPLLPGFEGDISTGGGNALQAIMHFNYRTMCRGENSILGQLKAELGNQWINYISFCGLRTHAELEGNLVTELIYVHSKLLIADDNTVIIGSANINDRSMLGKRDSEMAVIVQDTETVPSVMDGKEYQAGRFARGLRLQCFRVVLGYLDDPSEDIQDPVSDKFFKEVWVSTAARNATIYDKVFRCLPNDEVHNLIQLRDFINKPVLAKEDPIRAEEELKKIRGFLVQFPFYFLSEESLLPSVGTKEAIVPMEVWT

[18] = off-target signal loss in HeLa-CEM21 co-culture – HeLa F-luc CTL cells, cherry-picked, counter-screen for HIV-1 Env fusion inhibitor project, dose response (AID 652040); type: functional, cell-based;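 further: potency for signal decrease marking cytotoxic or nonspecific inhibition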
[19] = blockers of HIV-1 envelope-mediated cell-cell fusion – cherry-pick, dose response (AID 652057); type: functional, cell-based
Vero [20] = test: viability of Vero cells under compound – cytotoxicity control for flavivirus capping enzyme inhibitors (AID 588742); type: functional; details: Chlorocebus sabaeus
Streptococcus = test: GAS UMAA2166 growth inhibition – luminescence, BacTiterGlo, counter-screen for streptokinase expression inhibitor project, dose response (AID 1915); type: functional, organism-based;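 further: potency for reduction of bacterial viability or growth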
[21] = tested on: Streptococcus sp. 'group A'; test: Streptococcus pyogenes SK(-)GAS viability under kanamycin – luminescence, BacTiterGlo, confirmation, counter-screen for streptokinase expression inhibitor project, dose response (AID 1900); type: functional, organism-based
[22] = fluconazole-exposed Candida albicans growth modulators – fluorescence, retest, confirmation (AID 2467); type: functional, cell-based
[23] = NIH-3T3 fibroblast cytotoxicity, dose response, cytotoxicity control, cell-based, fluorescence, Alamar Blue, secondary assay (AID 2327); type: functional;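 further: NIH-3T3 mouse fibroblasts cultured with fluconazole at 8 µg/mL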
[24] = target: Heat shock protein HSP 90-alpha (Homo sapiens, UniProt P07900); type: functional, organism-based
[25] = target: Glucose-6-phosphate 1-dehydrogenase (Homo sapiens, UniProt P11413); test: inhibition of Homo sapiens G6PD, dose series – biochemical, fluorescence, selectivity assay for P. falciparum G6PD inhibitor project, dose response (AID 504792); type: functional
Glucose-6-phosphate 1-dehydrogenase, sequence (P11413 whole entry): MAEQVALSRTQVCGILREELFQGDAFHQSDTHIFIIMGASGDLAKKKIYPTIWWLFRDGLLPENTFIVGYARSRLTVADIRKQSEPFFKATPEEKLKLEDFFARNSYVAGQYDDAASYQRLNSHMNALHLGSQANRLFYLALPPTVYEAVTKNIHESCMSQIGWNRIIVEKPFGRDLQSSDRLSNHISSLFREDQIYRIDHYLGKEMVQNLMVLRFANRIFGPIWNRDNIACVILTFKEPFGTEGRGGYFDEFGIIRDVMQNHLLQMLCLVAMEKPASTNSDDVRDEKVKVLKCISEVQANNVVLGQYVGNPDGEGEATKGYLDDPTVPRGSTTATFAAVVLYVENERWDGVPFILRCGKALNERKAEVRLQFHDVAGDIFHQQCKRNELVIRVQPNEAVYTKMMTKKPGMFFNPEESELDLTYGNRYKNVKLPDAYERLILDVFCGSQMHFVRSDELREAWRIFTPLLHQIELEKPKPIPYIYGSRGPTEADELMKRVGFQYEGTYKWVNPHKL

[26] = target: T3, Apoptotic protease-activating factor 1 (Homo sapiens, UniProt O14727); type: functional
T3 sequence (O14727 whole entry): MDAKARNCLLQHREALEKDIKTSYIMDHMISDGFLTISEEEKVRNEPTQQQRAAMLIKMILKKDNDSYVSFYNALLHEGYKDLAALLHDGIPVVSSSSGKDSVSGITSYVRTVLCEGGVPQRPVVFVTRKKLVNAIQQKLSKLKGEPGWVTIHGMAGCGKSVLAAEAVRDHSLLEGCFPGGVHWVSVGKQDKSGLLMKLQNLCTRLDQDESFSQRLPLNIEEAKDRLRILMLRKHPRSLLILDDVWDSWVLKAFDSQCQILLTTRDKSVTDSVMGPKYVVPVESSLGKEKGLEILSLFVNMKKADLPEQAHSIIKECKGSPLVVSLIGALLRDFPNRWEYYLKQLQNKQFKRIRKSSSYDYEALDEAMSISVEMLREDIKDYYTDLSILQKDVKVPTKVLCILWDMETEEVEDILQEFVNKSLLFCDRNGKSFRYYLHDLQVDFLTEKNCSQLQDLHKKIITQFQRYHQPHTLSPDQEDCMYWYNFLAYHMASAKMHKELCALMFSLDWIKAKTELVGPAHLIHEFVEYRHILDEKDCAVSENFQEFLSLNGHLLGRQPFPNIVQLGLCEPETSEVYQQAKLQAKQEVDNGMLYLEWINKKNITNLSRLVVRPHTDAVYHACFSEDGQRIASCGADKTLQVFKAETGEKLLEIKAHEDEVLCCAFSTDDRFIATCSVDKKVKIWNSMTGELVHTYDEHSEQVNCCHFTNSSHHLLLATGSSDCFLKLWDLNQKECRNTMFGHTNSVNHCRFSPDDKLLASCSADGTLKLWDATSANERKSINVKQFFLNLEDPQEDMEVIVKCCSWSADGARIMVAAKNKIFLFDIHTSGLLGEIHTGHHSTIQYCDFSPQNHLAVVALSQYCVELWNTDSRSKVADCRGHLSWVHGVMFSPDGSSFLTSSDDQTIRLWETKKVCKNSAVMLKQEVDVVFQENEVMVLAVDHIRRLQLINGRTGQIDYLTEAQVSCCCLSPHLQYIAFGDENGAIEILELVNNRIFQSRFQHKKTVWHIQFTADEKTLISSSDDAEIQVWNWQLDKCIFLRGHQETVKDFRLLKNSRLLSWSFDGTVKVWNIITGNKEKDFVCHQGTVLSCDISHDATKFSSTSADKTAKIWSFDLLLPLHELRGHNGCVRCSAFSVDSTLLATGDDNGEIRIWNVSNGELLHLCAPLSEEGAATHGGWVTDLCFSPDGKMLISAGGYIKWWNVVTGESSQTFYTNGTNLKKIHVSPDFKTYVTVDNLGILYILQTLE

CN(C)S(=O)(=O)c1cc(NC(=O)CSc2nn(-c3ccc(Cl)cc3)c(=S)s2)ccc1Cl
active: IC50 (HEK293 [1]) 5.23 µM | IC50 (HEK293 [2]) 4.69 µM | EC50 (HEK293 [5]) 13.4 µM | IC50 (HEK293 [6]) 11.2 µM
inactive: EC50 (HEK293 [3]) > 59.7 µM | EC50 (HEK293 [4]) > 59.7 µM

c1ccc2c(c1)ncn2CCCCOc1ccc2c(c1)CCC2
active: CC50 [7] > 40 µM | EC50 [8] 24.1 µM | EC50 [9] 22.8 µM | AC50 [10] 28.6 µM | IC50 [11] 2.1 µM | AC50 (INS1) 5.04 µM | IC50 [12] 2.69 µM | AC50 [13] 9.21 µM

N#C/C(=C\C=C\c1ccccc1[N+](=O)[O-])C(=O)NC1CCCCC1
active: AC50 [14] 5.33 µM | AC50 (A-375) 25.9 µM | CC50 (Vero [15]) > 25 µM | AC50 [16] 7.8 µM | IC50 (Vero [17]) 17 µM
inactive: EC50 (HEK293 [3]) > 59.7 µM | EC50 (HEK293 [4]) > 59.7 µM

CN(C)c1ncc2nc(-c3ccc(Cl)cc3)c(=O)n(Cc3ccc(F)cc3)c2n1
inconclusive: AC50 (Cytochrome P450 3A4)

O=C(N[C@@H](Cc1ccccc1)CN1CCC(n2c(=O)[nH]c3ccccc32)CC1)c1cnc2ccccc2c1
active: IC50 (Phospholipase D2) 20 µM | IC50 (Phospholipase D1) 2.8 µM

COc1cccc(N2CCN(CCNC(=O)c3ccc4ccccc4c3)CC2)c1
active: IC50 (Phospholipase D2) 18 µM | IC50 (Phospholipase D1) 10 µM

C[C@@H](CN1CCC(n2c(=O)[nH]c3ccc(F)cc32)CC1)NC(=O)c1ccc(F)c(F)c1
active: IC50 (Phospholipase D2) 0.315 µM | IC50 (Phospholipase D1) 0.005 µM

COc1ccc(C(C)=O)cc1CC1(C)C(=O)Nc2ccc(-c3ccccc3OC)cc21 (stereo not drawn)
inactive: EC50 (HEK293 [3]) > 59.6 µM | EC50 (HEK293 [4]) > 59.6 µM
active: AC50 [18] 0.397 µM | AC50 [10] 0.627 µM | AC50 [13] 2.02 µM | AC50 [19] 0.29 µM

CC(=O)NC(c1ccccc1)c1cc(Cl)c2cccnc2c1O (stereo not drawn)
active: CC50 (Vero [20]) 6.04 µM | AC50 (INS1) 1.2 µM | EC50 (Streptococcus) 2.71 µM | EC50 [21] 1.73 µM | EC50 [22] 0.514 µM | EC50 [23] 4.24 µM | AC50 [24] 3.79 µM

CCOC(=O)Nc1ccc(NCc2ccc(F)cc2)nc1N [FLUPIRTINE MALEATE]
inactive: IC50 [25] 65.4 µM
active: IC50 [26] 26.6 µM

Reference: ChEMBL document CHEMBL1201862, “PubChem BioAssay data set” (2004)
